Data on 18 molecules can be found in patent US8809342B2, “Glucagon receptor modulators” (Pfizer Inc., priority 2010, dated 2014).

The target in this assay is T1, human glucagon receptor (Homo sapiens, UniProt P47871).
T1 construct: expressed in transfected cells; host or cells: CHO-K1 cells, stably transfected
T1 sequence (P47871 26-477): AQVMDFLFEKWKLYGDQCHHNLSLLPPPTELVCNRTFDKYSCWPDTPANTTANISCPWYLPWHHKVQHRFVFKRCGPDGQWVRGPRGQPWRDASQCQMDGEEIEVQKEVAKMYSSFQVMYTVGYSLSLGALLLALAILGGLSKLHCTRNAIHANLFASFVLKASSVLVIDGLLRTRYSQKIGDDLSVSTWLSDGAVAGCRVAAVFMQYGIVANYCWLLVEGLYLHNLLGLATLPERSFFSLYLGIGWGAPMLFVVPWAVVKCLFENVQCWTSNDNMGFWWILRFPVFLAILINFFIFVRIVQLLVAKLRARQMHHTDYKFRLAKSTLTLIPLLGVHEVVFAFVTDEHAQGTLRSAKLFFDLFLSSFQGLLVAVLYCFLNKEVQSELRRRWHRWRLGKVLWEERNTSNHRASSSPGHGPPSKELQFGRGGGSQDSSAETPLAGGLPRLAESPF
Description: Glucagon cAMP assay (Cisbio cAMP detection). Note: 100 pM glucagon challenge. The class given is cell-based.
Regarding `CC(C)CC(Nc1ccc(C(=O)NCCC(=O)O)cn1)c1ccc(-c2ccccc2Cl)cc1` (racemic) [Example 1.44, (+/−)-3-(6-(1-(2′-chlorobiphenyl-4-yl)-3-methylbutylamino)nicotinamido)propanoic acid], the Kb came out at 580 nM.
The same measure for `CCCC(Nc1ccc(C(=O)NCCC(=O)O)cn1)c1cnc(-c2ccc(OC(F)(F)F)cc2)nc1` (stereo not drawn) [Example 4.25, 3-(6-(1-(2-(4-(trifluoromethoxy)phenyl)pyrimidin-5-yl)butylamino)nicotinamido)propanoic acid]: 94 nM.
The same measure for `CC(C)CC(Nc1ncc(C(=O)Nc2nnn[nH]2)cn1)c1ccc(-c2ccc(C(F)(F)F)cc2)cc1` (racemic) [Example 1.19, (+/−)-2-(3-methyl-1-(4′-(trifluoromethyl)biphenyl-4-yl)butylamino)-N-(1H-tetrazol-5-yl)pyrimidine-5-carboxamide]: 890 nM; for `CC(C)CC(Oc1ccc(-c2ccc(C(F)(F)F)cc2)cc1)c1ccc(C(=O)NCCC(=O)O)cn1` (racemic) [Example 3.1, (+/−)-3-(6-(3-methyl-1-(4′-(trifluoromethyl)biphenyl-4-Yloxy)butyl)nicotinamido)propanoic acid]: 1500 nM; for `CC(C)CC(Nc1ccc(C(=O)NCCC(=O)O)cn1)c1ccc(-c2ccc(C(F)(F)F)nc2)cc1` (racemic) [Example 1.60, (+/−)-3-(6-(3-methyl-1-(4-(6-(trifluoromethyl)pyridin-3-yl)phenyl)butylamino)nicotinamido)propanoic acid]: 280 nM.
The same measure for `CCCC(Nc1ccc(-c2ccc(C(F)(F)F)cc2)nn1)c1ccc(C(=O)NCCC(=O)O)cc1` (racemic) [Example 2.14, (+/−)-3-(4-(1-(6-(4-(trifluoromethyl)phenyl)pyridazin-3-ylamino)butyl)benzamido)propanoic acid]: 290 nM; for `CC(C)CC(Nc1ccc(C(=O)NCCC(=O)O)cn1)c1ccc(-c2ccc(C(F)(F)F)cc2)cc1` (racemic) [Example 1.2, (+/−)-3-(6-(3-methyl-1-(4′-(trifluoromethyl)biphenyl-4-yl)butylamino)nicotinamido)propanoic acid]: 140 nM.
`COC1CC(C(Nc2ccc(C(=O)NCCC(=O)O)cn2)c2ccc(-c3ccc(C(F)(F)F)cc3)cc2)C1` (stereo not drawn) [Example 4.33, 3-(6-((3-methoxycyclobutyl)(4′-(trifluoromethyl)biphenyl-4-yl)methylamino)nicotinamido)propanoic acid] showed a Kb of 280 nM.
The result for `O=C(O)CCNC(=O)c1ccc(NC(c2ccc(-c3ccc(C(F)(F)F)cc3)cc2)C2CCC2)nc1` (racemic) [Example 1.32, (+/−)-3-(6-(cyclobutyl(4′-(trifluoromethyl)biphenyl-4-yl)methylamino)nicotinamido)propanoic acid] reads 610 nM; that for `CCCC(Nc1cnc(C(=O)NCCC(=O)O)cn1)c1ccc(-c2ccc(C(F)(F)F)cc2)cc1` (racemic) [Example 1.30, (+/−)-3-(5-(1-(4′-(trifluoromethyl)biphenyl-4-yl)butylamino)pyrazine-2-carboxamido)propanoic acid], 540 nM; that for `Cc1cc(C(CC(C)C)Nc2ccc(C(=O)NCCC(=O)O)cn2)cc(C)c1-c1ccc(C(F)(F)F)cc1` (racemic) [Example 1.28, (+/−)-3-(6-(1-(2,6-dimethyl-4′-(trifluoromethyl)biphenyl-4-yl)-3-methylbutylamino)nicotinamido)propanoic acid], 83 nM.
The result for `Cc1ccccc1-c1ccc(C(CC(C)C)Nc2ccc(C(=O)NCCC(=O)O)cn2)cc1` (racemic) [Example 1.42, (+/−)-3-(6-(3-methyl-1-(2′-methylbiphenyl-4-yl)butylamino)nicotinamido)propanoic acid] reads 780 nM; that for `CCC(Nc1cnc(-c2ccc(C(F)(F)F)cc2)c(C)c1)c1ccc(C(=O)NCCC(=O)O)cn1` (racemic) [Example 2.11, (+/−)-3-(6-(1-(5-methyl-6-(4-(trifluoromethyl)phenyl)pyridin-3-ylamino)propyl)nicotinamido)propanoic acid], 1800 nM; that for `CC(C)C(Nc1ccc(C(=O)NCCC(=O)O)cn1)c1ccc(-c2ccc(C(F)(F)F)cc2)cc1` (single isomer, unassigned; (-)) [Example 1.15, (−)-3-(6-(2-methyl-1-(4′-(trifluoromethyl)biphenyl-4-yl)propylamino)nicotinamido) propanoic acid], 78 nM.
The result for `CC(C)CC(Nc1ccc(-c2ccc(C(F)(F)F)cc2)nc1)c1ccc(C(=O)NCCC(=O)O)cn1` (racemic) [Example 2.7, (+/−)-3-(6-(3-methyl-1-(6-(4-(trifluoromethyl)phenyl)pyridin-3-ylamino)butyl)nicotinamido)propanoic acid] reads 280 nM.
In turn, `CC(C)C[C@H](Nc1ccc(C(=O)NCCC(=O)O)cn1)c1ccc(-c2ccc(C(F)(F)F)cc2)cc1` [Example 1.3, (−)-(S)-3-(6-(3-methyl-1-(4′-(trifluoromethyl)biphenyl-4-yl)butylamino)nicotinamido)propanoic acid] had a Kb of 73 nM.
Molecule `O=C(O)CCNC(=O)c1ccc(NC(c2cnc(-c3ccc(C(F)(F)F)cc3)nc2)C2CCCC2)nc1` (stereo not drawn) [Example 4.28, 3-(6-(cyclopentyl(2-(4-(trifluoromethyl)phenyl)pyrimidin-5-yl)methylamino)nicotinamido)propanoic acid] returned a Kb of 56 nM.
The same measure for `CC(C)CC(Nc1ccc(C(=O)NCCC(=O)O)cn1)c1ccc(-c2cccc(Cl)c2)cc1` (racemic) [Example 1.39, (+/−)-3-(6-(1-(3′-chlorobiphenyl-4-yl)-3-methylbutylamino)nicotinamido)propanoic acid]: 110 nM.
